Assays:
[1] = tested on: Burkholderia cepacia G4; test: Alkene degradation assay, whole cells of Burkholderia cepacia G4 (T2MO); type: cell-based; conditions: for alkene degraded that was detected as the epoxide product: toluene induced G4, 4.4 μmoles 1,3-butadiene or 2.2 μmoles 2-butene
Excerpt: (§1) Pseudomonas mendocina KR1 (Yen et al., J. Bacteriol., 173:5315–5327 (1991)), the T4MO mutant of KR1 Pseudomonas mendocina ENVpmx1 (McClay et al., The 97th Annual Meeting of ASM, Abstract K36, page 348 (1997)), Pseudomonas pickettii PKO1 (Byrne et al., Gene, 154:65–70 (1995)), Burkholderia cepacia G4 (Shields et al., Appl. Environ. Microbiol., 55:1624–1629 (1989)), Burkholderia sp. strain ENVBF1 (McClay et al., Appl. Environ. Microbiol., 62:2716–2722 (1996)), and Pseudomonas sp. strain ENVPC5 (McClay et al., 1996, supra) were cultured overnight at 30° C. in shake flasks containing basal salts medium (BSM; 10) supplemented with 0.4% sodium glutamate. Toluene was included in the vapor phase when induction of the toluene oxygenases was desired. Prior to substrate degradation assays the cultures were harvested by centrifugation and resuspended in BSM to an optical density at 550 nm (OD550) of 2, unless otherwise indicated. A standard curve of optical density vs. protein concentration for each strain was used to calculate the amount of protein per ml of the resuspended cultures.
(§2) To determine the range of alkenes that could be degraded by the toluene monooxygenase and the degradation kinetics of the toluene monooxygenases, 5-ml aliquots of the resuspended cultures were dispensed to 25-ml serum vials and crimp sealed with Teflon™ faced septa. Gaseous alkene substrates were added as pure compounds by using a gas-tight syringe, and other alkene substrates were added from stock solutions (20% in dimethylformamide). The amount of individual alkene substrates added were as follows: 1-butene, 2-butene, and 1,3-butadiene, 2.2 μM; epoxy butane, 1,3-butadiene monoxide, and epichlorohydrine, 8 μM; 1- and 2-pentene, 9 μM; hexene, 4 μM; octadiene, 4.5 μM; 2-chloropropene, 11 μM; and, 2,3-dichloropropene, 12 μM unless otherwise indicated. The serum vials were then placed horizontally on a rotary shaker operating at 100 rpm. During incubation the temperature was maintained between 20–22° C. for the Pseudomonads and at 37° C. for E. coli. The serum vials were periodically removed from the shaker and a 10–25 μl portion of the headspace gas was withdrawn through the septa and injected onto a gas chromatograph (GC) equipped with a 30 m Vocol column (Supelco Inc. Bellefonte, Pa.) maintained at 160° C., and a flame ionization detector. This allowed the monitoring of both the alkene compounds as well as the epoxide products. The same protocol was used to detect the formation of 1,2-butanediol and butadiene diepoxide, except that 1 μl of the culture media was injected onto the column rather than the headspace gas.

[2] = tested on: Burkholderia sp. strain ENVBF1; test: Enantiomeric ratio of monoepoxides (chiral GC), strain ENVBF1; type: cell-based
Procedure: (§3) To determine the ratio of R and S isomers of the epoxides formed from the oxidation of the alkenes, samples were analyzed for the presence of the epoxides and alkenes by gas chromatography as described above. When the epoxide concentration neared its maximum, or when the 80–90% of the substrate was degraded, the enantiomeric ratio of epoxides produced was determined by injecting a sample of the headspace gas onto a GC equipped with a chiral separation column (RT-BDEXSE; Restek, Inc., Bellefonte, Pa.) and a flame ionization detector. The column was maintained at 50° C.

[3] = tested on: Pseudomonas mendocina KR1 (T4MO); test: Enantiomeric ratio of monoepoxides (chiral GC), strain KR1; type: cell-based
Procedure: as §3

[4] = tested on: Pseudomonas sp. strain ENVPC5; test: Enantiomeric ratio of monoepoxides (chiral GC), strain ENVPC5; type: cell-based; conditions: PC5
Procedure: as §3

[5] = tested on: Pseudomonas pickettii PKO1 (T3MO); test: Enantiomeric ratio of monoepoxides (chiral GC), strain PKO1; type: cell-based; conditions: KO1 (PKO1)
Procedure: as §3

[6] = tested on: Pseudomonas sp. strain ENVPC5; test: Alkene degradation assay, whole cells of Pseudomonas sp. strain ENVPC5 (T4MO); type: cell-based; conditions: for added substrate degraded: in 20 hours
Excerpt: as §1, §2

[7] = tested on: Burkholderia sp. strain ENVBF1; test: Alkene degradation assay, whole cells of Burkholderia sp. strain ENVBF1 (T4MO); type: cell-based
Excerpt: as §1, §2

[8] = tested on: Pseudomonas mendocina KR1; test: Alkene degradation assay, whole cells of Pseudomonas mendocina KR1 (T4MO); type: cell-based
Excerpt: as §1, §2

[9] = tested on: Burkholderia cepacia G4 (T2MO); test: Enantiomeric ratio of monoepoxides (chiral GC), strain G4; type: cell-based
Procedure: as §3

[10] = tested on: wild type organisms; test: Alkene oxidation and epoxide detection (GC, PNBP), wild type organisms; type: cell-based; conditions: for epoxide detection during oxidation: wild type organisms
Procedure: as §2
The only epoxides relevant to this study that were commercially available were 1,3-butadiene mono-, and diepoxide. These were used in GC analyses to determine retention times and to quantitate the conversion of 1,3-butadiene to the corresponding epoxides. To verify that the observed peaks were epoxides, a modification of the method of van Hylckama et al. (van Hylckama et al., Appl. Environ. Microbiol., 62:3304–3312 (1996)) was used, whereby epoxides were conjugated with PNBP to form intensely colored adducts of the epoxides. Serum vials were prepared as before, except that prior to sealing the vials, Durham tubes were placed inside the vials, with the opening of the Durham tube extending out of the liquid. The substrate was then added and the vials were incubated with moderate shaking at a 45° angle to prevent the culture liquid from entering the Durham tube. The transformation of the alkenes was monitored by GC analysis. […] The vials were then allowed to incubate for 8 hours before they were opened and the epoxide containing PNBP withdrawn. The total volume of PNBP solution was combined with an equal volume of acetone-triethylamine (50:50) and mixed rapidly. Epoxide/PNBP adducts were detected by spectra analysis (400–700 nm).

[11] = tested on: E. coli (pRS202) expressing T4MO; test: Alkene degradation assay, E. coli (pRS202) expressing T4MO; type: cell-based, Escherichia coli DH10B
Procedure: Escherichia coli DH10B containing the plasmid pRS202 (Pikus et al., Biochemistry, 35:9106–9119 (1996); Pikus et al., Biochemistry, 36:9283–9289 (1997)) was prepared in a similar manner except it was grown at 37° C. in LB media, and was resuspended to an OD550 of 4 in LB media with 0.3–1 mM IPTG to induce expression of T4MO.
as §2

[12] = tested on: Pseudomonas mendocina ENVpmx1; test: Alkene degradation assay, T4MO deficient strain Pseudomonas mendocina ENVpmx1; type: cell-based
Excerpt: as §1, §2

[13] = following 30 minutes incubation
[14] = ENVBF1, following 30 minutes incubation
[15] = rate determined after 60 minutes of incubation

Compound: C=CC=C [1,3-butadiene]
- time until oxidized to a concentration below the limits of detection ([1]; G4): ≤ 6 h
- alkene degraded that was detected as the epoxide product [1]: > 95%
- monoepoxide formed, R enantiomer [2]: 22%
- monoepoxide formed, S enantiomer [2]: 78%
- monoepoxide formed, R enantiomer [3]: 22.4%
- monoepoxide formed, S enantiomer [3]: 77.6%
- monoepoxide formed, R enantiomer [4]: 32.7%
- monoepoxide formed, S enantiomer [4]: 67.3%
- monoepoxide formed, R enantiomer [5]: 19.6%
- monoepoxide formed, S enantiomer [5]: 80.4%
- Specific activity of toluene monooxygenase, substrate degraded [6, 13]: 0.09 μM substrate degraded/minute/mg protein
- added substrate degraded [6]: 50%
- Specific activity of toluene monooxygenase, substrate degraded [7, 14]: 0.13 μM substrate degraded/minute/mg protein
- added substrate degraded ([8]; in 20 hours): 50%
- substrate degraded ([8]; in 20 hours): 1.1 µmol
- monoepoxide formed, R enantiomer [9]: 8.1%
- monoepoxide formed, S enantiomer [9]: 91.9%

Compound: C=CCCC [1-pentene]
- degradation ([10]; all the wild type strains): efficiently degraded
- Specific activity of toluene monooxygenase, substrate degraded ([1]; G4, following 30 minutes incubation): 0.08 μM substrate degraded/minute/mg protein
- monoepoxide formed, R enantiomer [2]: 66.3%
- monoepoxide formed, S enantiomer [2]: 33.7%
- monoepoxide formed, R enantiomer [3]: 54.2%
- monoepoxide formed, S enantiomer [3]: 45.8%
- monoepoxide formed, R enantiomer [4]: 72.5%
- monoepoxide formed, S enantiomer [4]: 27.5%
- monoepoxide formed, R enantiomer [5]: 64.6%
- monoepoxide formed, S enantiomer [5]: 35.4%
- Specific activity of toluene monooxygenase, substrate degraded [6, 13]: 0.15 μM substrate degraded/minute/mg protein
- Specific activity of toluene monooxygenase, substrate degraded [7, 14]: 0.05 μM substrate degraded/minute/mg protein
- degradation by the clone of T4MO [11]: degraded
- Specific activity of toluene monooxygenase, substrate degraded [8, 13]: 0.21 μM substrate degraded/minute/mg protein
- monoepoxide formed, R enantiomer [9]: 100%
- monoepoxide formed, S enantiomer [9]: 0%

Compound: C=C(Cl)CCl [2,3-chloropropene, 2,3-dichloropropene]
- epoxide detection during oxidation [10]: no epoxides were detected
- amount degraded compared with the T4MO-expressing organisms ([1]; G4): twice as much
- Specific activity of toluene monooxygenase, substrate degraded ([1]; G4, rate determined after 60 minutes of incubation): 0.23 μM substrate degraded/minute/mg protein
- amount oxidized, less than the amount of 2-chloropropene degraded by the same strain [6]: 66.0%
- Specific activity of toluene monooxygenase, substrate degraded [6, 15]: 0.12 μM substrate degraded/minute/mg protein
- amount oxidized, less than the amount of 2-chloropropene degraded by the same strain ([7]; ENVBF1): 75.6%
- Specific activity of toluene monooxygenase, substrate degraded ([7]; ENVBF1, rate determined after 60 minutes of incubation): 0.08 μM substrate degraded/minute/mg protein
- amount oxidized, less than the amount of 2-chloropropene degraded by the same strain [8]: 95.2%
- Specific activity of toluene monooxygenase, substrate degraded [8, 15]: 0.01 μM substrate degraded/minute/mg protein

Compound: CC=CC [2-butene]
- alkene degraded that was detected as the epoxide product [1]: 43%
- Specific activity of toluene monooxygenase, substrate degraded [6, 13]: 0.17 μM substrate degraded/minute/mg protein
- added substrate degraded [6]: Greater than 95%
- Specific activity of toluene monooxygenase, substrate degraded [7, 14]: 0.12 μM substrate degraded/minute/mg protein
- time to degrade all the substrate [8]: 3.5 h
- added substrate degraded ([8]; in 20 hours): Greater than 95%

Compound: C=C(C)Cl [2-chloropropene]
- epoxide detection during oxidation [10]: no epoxides were detected
- substrate degraded ([6]; first 3 hours of incubation): 4 µmol
- Specific activity of toluene monooxygenase, substrate degraded [6, 13]: 0.18 μM substrate degraded/minute/mg protein
- additional substrate degraded ([6]; following 17 hours): 1.0 µmol
- substrate degraded ([7]; ENVBF1, first 3 hours of incubation): 2.3 µmol
- Specific activity of toluene monooxygenase, substrate degraded [7, 14]: 0.16 μM substrate degraded/minute/mg protein
- substrate degraded ([7]; ENVBF1, following 17 hours): 6.3 µmol
- substrate degraded ([8]; first 3 hours of incubation): 2.1 µmol
- Specific activity of toluene monooxygenase, substrate degraded [8, 13]: 0.07 μM substrate degraded/minute/mg protein
- additional substrate degraded ([8]; following 17 hours): 0.84 µmol

Compound: C=CC1CO1 (stereo not shown) [BME, 1,3-butadiene monoepoxide]
- epoxide degraded ([1]; induced G4 in the presence of butadiene, approximately 5 hr): 0.7 µmol
- epoxide degraded ([1]; induced G4 in the presence of toluene, approximately 5 hr): 0.5 µmol
- epoxide degraded ([1]; toluene-induced G4, pure BME, first hour): 8 µmol
- epoxide oxidized ([1]; uninduced G4, first hour): less than 1 μmole
- epoxide oxidized ([7]; induced ENVBF1, 24 hours): 13.4 µmol
- epoxide degraded ([7]; uninduced ENVBF1, 24 hours): less than 1.3 μmoles

Compound: hexene
- degradation compared with the wild type strains [12]: at a greater rate than the wild type strains
- epoxide detection during oxidation [12]: no epoxides were detected
- epoxide detection during oxidation [10]: no epoxides were detected
- degradation by the clone of T4MO [11]: degraded

Compound: octadiene
- degradation compared with the wild type strains [12]: at a greater rate than the wild type strains
- epoxide detection during oxidation [12]: no epoxides were detected
- epoxide detection during oxidation [10]: no epoxides were detected
- degradation by the clone of T4MO [11]: did not oxidize

Compound: pentene
- epoxide detection during oxidation [12]: no epoxides were detected

— patent US7169591B1, “Preparation of enantio-specific epoxides” (priority 1999, dated 2007)
